Measured values from ChEMBL document CHEMBL1201862, “PubChem BioAssay data set” (2004).
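1) Cells in 96-well plates. 2) Compound, 48 h, 5 concentrations. 3) Linear interpolation between surrounding doses. 4) Unreached endpoint = highest concentration. GI50 is the concentration that inhibits growth by half.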 Active and inactive are the calls of the source. Cut-off read from the data, not from the text of the source: active = GI50 up to about 1.1 µM and inactive = higher. Residues, ends and D or L forms follow the SMILES beside them. *: point of attachment. Bn = c1ccc(C*)cc1

Experiments:
Test in all cases: DTP human tumour cell line panel, 48 h
RXF 393 = test system: RXF 393
HL-60 = test system: HL-60
OVCAR-8 = test system: OVCAR-8
OVCAR-5 = test system: OVCAR-5
SR = test system: SR
HCT-15 = test system: HCT-15
A549 = test system: A549
NCI-H460 = test system: NCI-H460
MDA-MB-435 = test system: MDA-MB-435
SK-MEL-28 = test system: SK-MEL-28
UACC-62 = test system: UACC-62
OVCAR-3 = test system: OVCAR-3
K562 = test system: K562
SF-295 = test system: SF-295
COLO 205 = test system: COLO 205
TK-10 = test system: TK-10
A498 = test system: A498
NCI-H23 = test system: NCI-H23
PC-3 = test system: PC-3
SN12C = test system: SN12C

Structure (SMILES)	GI50 (RXF 393)	GI50 (HL-60)	GI50 (OVCAR-8)	GI50 (OVCAR-5)	GI50 (SR)	GI50 (HCT-15) [µM]	GI50 (A549)	GI50 (NCI-H460)	GI50 (MDA-MB-435)	GI50 (SK-MEL-28)	GI50 (UACC-62)	GI50 (OVCAR-3)	GI50 (K562)	GI50 (SF-295)	GI50 (COLO 205)	GI50 (TK-10)	GI50 (A498)	GI50 (NCI-H23)	GI50 (PC-3)	GI50 (SN12C)
COC(=O)C(CC(C)C)NC(=O)C(N)Cc1ccc(OCc2ccccc2)cc1 (configuration not stated) (H-Tyr(Bn)-Leu-OMe; configuration not given here)	> 10 µM (inactive)	2.54 µM (inactive)	> 10 µM (inactive)	> 10 µM (inactive)	7.64 µM (inactive)	> 10	> 10 µM (inactive)	> 10 µM (inactive)	> 10 µM (inactive)	> 10 µM (inactive)	> 10 µM (inactive)	> 10 µM (inactive)	> 10 µM (inactive)	> 10 µM (inactive)	> 10 µM (inactive)	> 10 µM (inactive)	> 10 µM (inactive)	> 10 µM (inactive)	> 10 µM (inactive)	> 10 µM (inactive)
CC1(C)OC1CC/C(=C/CBr)CBr (configuration not stated)	17 µM (inactive)	4.92 µM (inactive)		17.5 µM (inactive)	13.8 µM (inactive)		21.3 µM (inactive)	15 µM (inactive)	17.8 µM (inactive)	17.2 µM (inactive)		18.7 µM (inactive)	15.8 µM (inactive)	14.1 µM (inactive)	15.9 µM (inactive)	18.2 µM (inactive)	21.4 µM (inactive)	15.5 µM (inactive)	15.6 µM (inactive)	15.6 µM (inactive)
O=C(Nc1nnc(-c2ccccc2)o1)C(SC(=S)N1CCCC1)c1ccccc1 (configuration not stated)	40.3 µM (inactive)	19.9 µM (inactive)	32 µM (inactive)	36.4 µM (inactive)	20.1 µM (inactive)	6.9	26.4 µM (inactive)	16.4 µM (inactive)	29.7 µM (inactive)	49 µM (inactive)		23.5 µM (inactive)	24.4 µM (inactive)	22.9 µM (inactive)	37.2 µM (inactive)	51.9 µM (inactive)	27.1 µM (inactive)	24.3 µM (inactive)	27.8 µM (inactive)	16.7 µM (inactive)
C[C@]12CC[C@H]3[C@@H](CC=C4C[C@@H](O)CC[C@@]43C)[C@@H]1C/C(=C/c1ccccc1)[C@@H]2O	> 25.1 µM (inactive)	> 43 µM (inactive)	20.9 µM (inactive)	> 46.7 µM (inactive)	3.85 µM (inactive)	19.7	> 35.6 µM (inactive)	20.1 µM (inactive)	> 46 µM (inactive)	> 44.6 µM (inactive)	17.8 µM (inactive)	16 µM (inactive)	> 23.6 µM (inactive)	> 36.7 µM (inactive)	> 53.6 µM (inactive)	27.8 µM (inactive)	17.2 µM (inactive)	15.9 µM (inactive)	18.9 µM (inactive)	
CCCCCCCCCC[C@@H](O)[C@@H]1CC[C@@H]([C@@H]2CC[C@@H]([C@@H](O)CCCCCCCCCC[C@H](O)CC3=CC(C)OC3=O)O2)O1 (some centres not stated)	3.22 µM (inactive)	0.102 µM (active)	2.65 µM (inactive)	9.25 µM (inactive)	2.05 µM (inactive)	3.45	1.73 µM (inactive)	0.895 µM (active)	1.09 µM (active)	3.36 µM (inactive)	1.44 µM (inactive)	3.94 µM (inactive)	0.0318 µM (active)	1.71 µM (inactive)	3.94 µM (inactive)	3.48 µM (inactive)	1.7 µM (inactive)		2.34 µM (inactive)	5.62 µM (inactive)
Nc1nc2[nH]cc(CCc3ccc(C(=O)N[C@@H](CCC(=O)O)C(=O)O)cc3)c2c(=O)[nH]1 [PEMETREXED]	> 100 µM (inactive)	0.0652 µM (active)		> 100 µM (inactive)	> 100 µM (inactive)	> 100	1.4 µM (inactive)	0.0359 µM (active)	> 100 µM (inactive)	> 100 µM (inactive)	0.23 µM (active)	> 100 µM (inactive)	< 0.0258 µM (active)	0.418 µM (active)	> 100 µM (inactive)	> 100 µM (inactive)	0.27 µM (active)	> 100 µM (inactive)	> 100 µM (inactive)	> 100 µM (inactive)
CC(=O)O[C@@]12CO[C@@H]1C[C@H](O)[C@@]1(C)C(=O)[C@H](O)C3=C(C)[C@@H](OC(=O)[C@H](O)[C@@H](NC(=O)OC(C)(C)C)c4ccccc4)C[C@@](O)([C@@H](OC(=O)c4ccccc4)[C@H]21)C3(C)C [DOCETAXEL]	0.242 µM (active)	< 0.0631 µM (active)	< 0.01 µM (active)	< 0.01 µM (active)	< 0.01 µM (active)	0.0493	< 0.01 µM (active)	0.00291 µM (active)	0.000149 µM (active)		< 0.01 µM (active)	< 0.01 µM (active)	< 0.01 µM (active)	0.0107 µM (active)	< 0.01 µM (active)	0.225 µM (active)	< 0.0851 µM (active)	< 0.01 µM (active)	0.00578 µM (active)	< 0.01 µM (active)
